Experimental data: patent EP0187956A2, “Pharmaceutical composition for the treatment of defects of the gastrointestinal mucous membrane” (BOEHRINGER INGELHEIM KG, priority 1984, dated 1986)

Experiments:
[1] = tested on: Durch Ethanol verursachte Magengeschwüre; experiment: Ethanol-induced gastric ulcers in fasted female rats; type: in vivo, Ratten; details: for ED50: Rattus norvegicus, po, 30 min before 0,7 ml absolute ethanol, dose protecting 50 % of the animals
Procedure: (§1) Die mucoprotektive Wirkung auf den Gastrointestinaltrakt verschiedener Verbindungen wurde im Vergleich zu dem bekannten Antiulcusmittel Carbenoxolone an weiblichen Ratten getestet, die für 24 Stunden vor Beginn des Tests fasteten. Diese Tiere wurden den folgenden Tests unterworfen:
(§2) Gruppen von 10 Ratten erhielten abgestufte Dosen der zu untersuchenden Verbindungen oral mittels Schlundsonde; die Verbindungen waren in 0,2 % Methocel suspendiert. Nach 30 Minuten erhielten die Tiere 0,7 ml absolutes Ethanol. 30 Minuten später wurden die Tiere getötet, der Magen entfernt, entlang der großen Curvatur geöffnet und von einem neutralen Beobachter untersucht. Einem Magengeschwür entsprechende Schädigungen wurden auch nach ihrer Schwere beurteilt, aber ihre Häufigkeit (in %) diente als Basis für die Berechnung des prozentualen Schutzes. Die ED50 ist diejenige Dosis einer Verbindung, die 50 % der Tiere schützt; sie wird ausgedrückt durch die Relation Schutz:Dosis.

[2] = tested on: Durch Natronlauge verursachte Magengeschwüre; experiment: Sodium hydroxide (0,2 N)-induced gastric ulcers in fasted female rats; type: in vivo, Ratten; details: for ED50: Rattus norvegicus, po, 1 h, p.o., 0,2 N sodium hydroxide as ulcerogen, animals killed 60 min after it
Procedure: as §1, §2
Der Test verlief in gleicher Weise wie der unter 1. beschriebene. Anstelle von Ethanol wurde 0,2 N Natronlauge als Ulcus verursachendes Agens gewählt und die Tiere 60 Minuten nach dessen Gabe getötet. Die ED50 wurde, wie oben angegeben, bestimmt.

[3] = tested on: Durch Ethanol verursachte Magengeschwüre bei Ratten, die mit Indomethacin und Acetylsalicylsäure vorbehandelt worden waren; experiment: Ethanol-induced gastric ulcers in rats pretreated with indomethacin or acetylsalicylic acid (suppression of prostaglandin synthesis); type: in vivo; details: 30 mg/kg p.o.
Procedure: as §1, §2
Es ist bekannt, daß Prostaglandine einen cytoprotektiven Effekt haben. Weiter ist bekannt, daß Prostaglandine eine antiulcerogene Wirkung haben. Durch eine Hemmung der Prostaglandin-Biosynthese, z.B. durch Acetylsalicylsäure oder Indomethacin, wird die antiulceregene Wirkung unterdrückt.
Gruppen von je 10 Ratten wurden entweder mit Indomethacin (3 mg/kg s.c.) oder Acetylsalicylsäure (10 mg/kg) vorbehandelt und nach 30 bis 60 Minuten die Testsubstanz verabreicht. Dann wurde ein durch Ethanol verursachtes Magengeschwür gesetzt und, wie unter 1. beschrieben, weitergearbeitet.

Structure (SMILES): CCOC(=O)[C@H](CCc1ccccc1)N[C@@H](C)C(=O)N1CCc2ccsc2[C@H]1C(=O)O [E, N-[N-1-(S-Ethoxycarbonyl-3-phenylpropyl)-2-S-alanyl]-4,5,6,7-tetrahydro-thieno[2,3-c]pyridin-7-R-carbonsäure]
- ED50 [1]: 12 mg/kg

Structure (SMILES): CC(CS)C(=O)N1CCC[C@@H]1C(=O)O (stereo partly drawn) [Captopril, D-2-Methyl-3-mercaptopropanoyl-L-prolin, reference compound]
- % Schutz (% Tier ohne Magengeschwüre) ([1]; 30 mg/kg p.o.): 5%
- % Schutz (% Tier ohne Magengeschwüre) ([1]; 55 mg/kg p.o.): 30%
- % Schutz (% Tier ohne Magengeschwüre) ([1]; 100 mg/kg p.o.): 70%
- ED50 [1]: 74.4 mg/kg

Structure (SMILES): CC1(C)[C@@H](OC(=O)CCC(=O)O)CC[C@]2(C)[C@H]3C(=O)C=C4[C@@H]5C[C@@](C)(C(=O)O)CC[C@]5(C)CC[C@@]4(C)[C@]3(C)CC[C@@H]12 [Carbenoxolone, reference compound]
- % Schutz (% Tier ohne Magengeschwüre) ([1]; 30 mg/kg p.o.): 10%
- % Schutz (% Tier ohne Magengeschwüre) ([1]; 100 mg/kg p.o.): 60%
- % Schutz (% Tier ohne Magengeschwüre) ([1]; 300 mg/kg p.o.): 90%
- ED50 [1]: 89 mg/kg
- %Schutz-wirkung ([2]; 100 mg/kg p.o.): 33%
- %Schutz-wirkung ([2]; 170 mg/kg p.o.): 70%
- %Schutz-wirkung ([2]; 300 mg/kg p.o.): 80%
- ED50 [2]: 132 mg/kg

Structure (SMILES): C[C@H](CS)C(=O)N1CCC[C@H]1C(=O)OCOC(=O)C(C)(C)C [G, 1-(3-Mercapto-Z-D-methylpropanoyl)-L-prolin-pivaloyloxymethylester]
- % Schutz (% Tier ohne Magengeschwüre) ([1]; 3 mg/kg p.o.): 30%
- % Schutz (% Tier ohne Magengeschwüre) ([1]; 10 mg/kg p.o.): 50%
- % Schutz (% Tier ohne Magengeschwüre) ([1]; 30 mg/kg p.o.): 40%
- ED50 [1]: 4 mg/kg
- % Schutzwirkung ([3]; pretreatment: Acetylsalicylsäure 10 mg/kg p.o., 60 min before ethanol): 10%
- % Schutzwirkung ([3]; pretreatment: Indomethacin 3 mg/kg s.c., 30 min before ethanol): 40%
- % Schutzwirkung ([3]; pretreatment: saline (control)): 100%
- %Schutz-wirkung ([2]; 3 mg/kg p.o.): 10%
- %Schutz-wirkung ([2]; 10 mg/kg p.o.): 39%
- %Schutz-wirkung ([2]; 17 mg/kg p.o.): 70%
- %Schutz-wirkung ([2]; 30 mg/kg p.o.): 80%
- ED50 [2]: 11.7 mg/kg

Structure (SMILES): CC(=O)SC[C@@H](C)C(=O)N1CCc2sccc2C1C(=O)O (stereo partly shown) [F]
- ED50 [1]: 3 mg/kg

Structure (SMILES): CC(CS)C(=O)N1CCc2sccc2C1C(=O)O [C, 1-(3-Mercapto-2-(R,S)-methylpropanoyl)-4,5,6,7-tetrahydro-thieno-[3,2-c]pyridin-4-(R,S)-carbonsäure]
- ED50 [1]: 6 mg/kg

Structure (SMILES): C[C@@H](CSC(C[N+](=O)[O-])c1ccccc1)C(=O)N1CCC[C@H]1C(=O)O (stereo partly drawn) [D, 1-[3-(1-Phenyl-2-nitro-äthylthio)-2-R-methylpropanoyl]-L-prolin]
- ED50 [1]: 0.6 mg/kg
